Experimental data reported in patent US20170066759A1, “AROMATIC 5-MEMBERED HETEROCYCLIC DERIVATIVE HAVING TRPV4-INHIBITING ACTIVITY” (Shionogi & Co., Ltd., priority 2012, published 2017).

Assays:
[1] = biological target: T1, human TRPV4 (hTRPV4/CHO cells) (Homo sapiens, UniProt Q9HBA0); assay: Test Example 4: TRPV4 inhibitory activity (Ki value), 4α-PDD stimulation, Fluo-3 calcium fluorescence (FDSS 3000); type: cell-based; conditions: Test Example 4, 4α-PDD stimulation, read-out: Test 4 Ki
T1 construct: expressed in transfected cells; host or cells: CHO-K1
Procedure: TRPV4 Inhibitory Activity (Ki Value)
For each compound, TRPV4 inhibitory activity was measured using cells.
(Method) The procedures of evaluating TRPV4 inhibitory activity of a compound are as follows.
(1) TRPV4 inhibitory activity was measured using CHO-K1 cells stably expressing human TRPV4 (hTRPV4/CHO cells).
(2) Cells were subcultured using the MEM-α medium (SIGMA M4526: 500 ml), FBS (HyCloneSH30070.03: 10%), L-Glutamine 200 mmol/L (GIBCO: 4 mmol/L), P/S (nacalai tesque: 1%), G418 (nacalai tesque: 1 mg/mL).
(3) The 96-well plates which hTRPV4/CHO cells were seeded at densities of 2×10^4 cells/well in the culture medium in the day before the experimental day, and cultured in a CO2 incubator in the presence of 5% CO2 at 37° C. for 24 hours was used as assay plates.
(4) Cells were washed with assay buffer (Hank's Balanced Salt Solution 9.8 g, 1 mol/L HEPES (pH7.5), 250 mmol/L probenecid).
(5) Fluo-3, fluorescent dye for Ca influx assay was added to each well, then the assay plate was incubated in a CO2 incubator in the presence of 5% CO2 at 37° C. for one hour (final conc.; 5 μmol/L Fluo-3).
(6) The assay plate was washed with the assay buffer, and the buffer was remained at 30 μL/well. Then the assay plate was incubated for 10 min at 37° C.
(7) 20 μL of diluted compound solution was added to each well of assay plate, and mixed with built-in Pipette and Mixer of the fluorescence analysis system FDSS 3000 (Hamamatsu Photonics).
(8) 50 μL of 4α-PDD solution (concluding 0.1% Pluronic F-127) was applied to each well of assay plate and mixed.
(9) The fluorescent intensity was measured by FDSS 3000 for 8 min from the point of time addition the compound solution, at Ex 480 nm, Em 540 nm wavelength.
TRPV4 inhibitory activity (Ki value) of a compound was calculated according to the following procedure.
(10) In the presence of the compound, the difference between maximal and minimal of fluorescent intensity value for 8 min from just before addition of 4α-PDD solution was calculated, and it was referred as Max-Min value. Max-Min value of the Ruthenium Red at 10 μM was defined as 100% inhibitory activity, Max-Min value in the absence of the compound was defined as 0% inhibitory activity. TRPV4 inhibitory activity of the compound was calculated by the following formula.
(1−(Max−Min value of the compound−100% inhibitory activity)/(0% inhibitory activity−100% inhibitory activity))×100
(11) By the following formula, inhibitory activity was calculated at 10 points with three fold serial dilution, in the final concentration of the compound from 10 μmol/L to 0.5 nmol/L. The IC50 value was calculated by dose-response curve.
100−[(fluorescent intensity in the presence of the compound−fluorescent intensity of back ground)/(total fluorescent intensity−fluorescent intensity of back ground)]×100
(12) In the presence of the compound, activity of 4α-PDD was measured at 9 points with three fold serial dilution from 20 μmol/L. Activity of 4α-PDD was calculated by the following formula.
(Max−Min value of the each 4α-PDD concentration−0% activity)/(100% activity−0% activity))×100
(13) Effective activity was calculated in 4α-PDD the above. The EC50 value was calculated by dose-response curve.
(14) The Ki value of a compound was calculated by the following formula.
Ki=IC50 value/1+([A]/EC50)
[A]: Concentration of agonist (nmol/L)

CYP2D6 = biological target: T2, CYP2D6 (Homo sapiens, UniProt P10635); assay: Test Example 6: CYP inhibition test, dextromethorphan O-demethylation (CYP2D6); type: in vitro ADME; conditions: pooled human hepatic microsome, 5 μmol/L dextromethorphan
T2 construct: enzyme, pooled human hepatic microsome 0.2 mg protein/mL; from tissue; host or cells: pooled human liver microsomes
Procedure: (§1) Test Example 6 CYP Inhibition Test […] The reaction conditions were as follows: substrate, 0.5 μmol/L ethoxyresorufin (CYP1A2), 100 μmol/L tolbutamide (CYP2C9), 50 μmol/L S-mephenytoin (CYP2C19), 5 μmol/L dextromethorphan (CYP2D6), 1 μmol/L terfenedine (CYP3A4); reaction time, 15 minutes; reaction temperature, 37° C.; enzyme, pooled human hepatic microsome 0.2 mg protein/mL; concentration of the compound of the present invention, 1, 5, 10, 20 μmol/L (four points). Each five kinds of substrates, human hepatic microsome, and the compound of the present invention in 50 mmol/L Hepes buffer as a reaction solution were added to a 96-well plate at the composition as described above. NADPH, as a cofactor was added to initiate metabolism reactions as markers and, after the incubation at 37° C. for 15 minutes, a methanol/acetonitrile=1/1 (v/v) solution was added to stop the reaction. After the centrifugation at 3000 rpm for 15 minutes, resorufin (CYP1A2 metabolite) in the supernatant was quantified by a fluorescent multilabel counter and toltributamide hydroxide (CYP2[…] metabolite), mephenytoin 4' hydroxide (CYP2C19 metabolite), […], and terfenadine alcohol (CYP3A4 metabolite) were quantified by LC/MS/MS. Addition of only DMSO being a solvent dissolving the compound of the present invention to a reaction system was adopted as a control (100%). Remaining activity (%) was calculated at each concentration of the compound of the present invention added as the solution and IC50 was calculated by reverse presumption by a logistic model using a concentration and an inhibition rate.

CYP1A2 = biological target: T3, CYP1A2 (Homo sapiens, UniProt P05177); assay: Test Example 6: CYP inhibition test, 7-ethoxyresorufin O-deethylation (CYP1A2); type: in vitro ADME; conditions: pooled human hepatic microsome, 0.5 μmol/L ethoxyresorufin
T3 construct: enzyme, pooled human hepatic microsome 0.2 mg protein/mL; from tissue; host or cells: pooled human liver microsomes
T3 sequence (P05177 1-516): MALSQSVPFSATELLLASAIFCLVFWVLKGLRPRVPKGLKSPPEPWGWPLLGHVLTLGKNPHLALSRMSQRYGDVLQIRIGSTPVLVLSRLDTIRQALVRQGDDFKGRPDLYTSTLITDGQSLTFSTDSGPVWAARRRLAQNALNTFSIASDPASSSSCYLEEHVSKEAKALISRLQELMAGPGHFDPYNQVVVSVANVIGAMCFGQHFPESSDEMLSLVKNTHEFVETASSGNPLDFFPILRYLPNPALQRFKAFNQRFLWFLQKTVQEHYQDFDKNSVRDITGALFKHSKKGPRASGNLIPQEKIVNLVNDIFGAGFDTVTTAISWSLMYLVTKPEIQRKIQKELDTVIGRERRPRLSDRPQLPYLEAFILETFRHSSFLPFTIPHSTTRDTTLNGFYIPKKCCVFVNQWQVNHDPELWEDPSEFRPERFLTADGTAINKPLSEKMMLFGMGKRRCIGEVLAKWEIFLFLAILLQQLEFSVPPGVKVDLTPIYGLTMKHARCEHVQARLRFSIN
Procedure: as §1

CYP3A4 = biological target: T4, CYP3A4 (Homo sapiens, UniProt P08684); assay: Test Example 6: CYP inhibition test, terfenedine hydroxylation (CYP3A4); type: in vitro ADME; conditions: pooled human hepatic microsome, 1 μmol/L terfenedine
T4 construct: enzyme, pooled human hepatic microsome 0.2 mg protein/mL; from tissue; host or cells: pooled human liver microsomes
Procedure: as §1

CYP2C19 = biological target: T5, CYP2C19 (Homo sapiens, UniProt P33261); assay: Test Example 6: CYP inhibition test, mephenytoin 4′-hydroxylation (CYP2C19); type: in vitro ADME; conditions: pooled human hepatic microsome, 50 μmol/L S-mephenytoin
T5 construct: enzyme, pooled human hepatic microsome 0.2 mg protein/mL; from tissue; host or cells: pooled human liver microsomes
Procedure: as §1

CYP2C9 = biological target: T6, CYP2C9 (Homo sapiens, UniProt P11712); assay: Test Example 6: CYP inhibition test, tolbutamide methyl-hydroxylation (CYP2C9); type: in vitro ADME; conditions: pooled human hepatic microsome, 100 μmol/L tolbutamide
T6 construct: enzyme, pooled human hepatic microsome 0.2 mg protein/mL; from tissue; host or cells: pooled human liver microsomes
Procedure: as §1

[2] = Test Example 8: Solubility test; type: physicochemical; conditions: fassgf or other biorelevant, kinetic from dmso stock; 1% DMSO addition, artificial intestinal juice pH 6.8, 16 hours at 25° C.
Procedure: The solubility of a compound of the present invention was determined under 1% DMSO addition conditions. A 10 mmol/L solution of the compound was prepared with DMSO, and 6 μL of the solution of the compound of the present invention was added to 594 μL of an artificial intestinal juice (water and 118 mL of 0.2 mol/L NaOH reagent were added to 250 mL of 0.2 mol/L potassium dihydrogen phosphate reagent to reach 1000 mL) with a pH of 6.8. The mixture was left standing for 16 hours at 25° C., and the mixture was vacuum-filtered. The filtrate was two-fold diluted with methanol/water=1/1 (V/V), and the compound concentration in the filtrate was measured with HPLC or LC/MS/MS by the absolute calibration method.

[3] = biological target: T1, human TRPV4 (hTRPV4/CHO cells); assay: Test Example 1: TRPV4 inhibitory activity (IC50 value), 4α-PDD stimulation, Fluo4 calcium fluorescence (FLIPR TETRA); type: cell-based; conditions: Test Example 1, 4α-PDD stimulation, read-out: Test 1 IC50
[4] = Test Example 9: Metabolism stability test; type: in vitro ADME; conditions: human liver microsomes 0.5 mg protein/mL, 30 minutes at 37° C., NADPH, compound concentration 0.5 μmol/L
Procedure: Metabolism Stability Test
Using a commercially available pooled human hepatic microsomes, a compound of the present invention was reacted for a constant time, a remaining rate was calculated by comparing a reacted sample and an unreacted sample, thereby, a degree of metabolism in liver was assessed.
A reaction was performed (oxidative reaction) at 37° C. for 0 minute or 30 minutes in the presence of 1 mmol/L NADPH in 0.2 mL of a buffer (50 mmol/L Tris-HCl pH 7.4, 150 mmol/L potassium chloride, 10 mmol/L magnesium chloride) containing 0.5 mg protein/mL of human liver microsomes. After the reaction, 50 μL of the reaction mixture was added to 100 μL of a methanol/acetonitrile=1/1 (v/v), mixed and centrifuged at 3000 rpm for 15 minutes. The compound of the present invention in the supernatant was quantified by LC/MS/MS, and a remaining amount of the compound of the present invention after the reaction was calculated, letting a compound amount at 0 minute reaction time to be 100%. Hydrolysis reaction was performed in the absence of NADPH and glucuronidation reaction was in the presence of 5 mmol/L UDP-glucuronic acid in place of NADPH, followed by similar operations.
(Results) Compound concentration: 0.5 μmol/L

[5] = biological target: T7, CYP3A4 enzyme expressed in Escherichia coli (Homo sapiens, UniProt P08684); assay: Test Example 5: CYP3A4 fluorescent MBI test; type: in vitro ADME; conditions: substrate 7-BFC, pre-reaction 30 minutes, compound 0.625-20 μmol/L
T7 construct: host or cells: Escherichia coli
Procedure: CYP3A4 Fluorescent MBI Test
The CYP3A4 fluorescent MBI test is a test of investigating enhancement of CYP3A4 inhibition of a compound of the present invention by a metabolism reaction, and the test was performed using, as CYP3A4 enzyme expressed in Esherichia coli and employing, as an index, a reaction in which 7-benzyloxytrifluoromethylchmarin (7-BFC) is debenzylated by the CYP3A4 enzyme to produce a metabolite, 7-hydroxytrifluoromethylchmarin (HFC) emitting fluorescent light.
The reaction conditions were as follows: substrate, 5.6 μmol/L 7-BFC; pre-reaction time, […] or 30 minutes; reaction time, 15 minutes; reaction temperature, 25° C. […]
An enzyme in a K-Pi buffer (pH 7.4) and a solution of the compound of the present invention as a pre-reaction solution were added to a 96-well plate at the above composition of the pre-reaction. […] For the plate on which each index reaction had been performed, a fluorescent value of 7-HFC which is a metabolite was measured with a fluorescent plate reader. […]
Addition of only DMSO which is a solvent dissolving the compound of the present invention to a reaction system was adopted as a control (100%). Remaining activity (%) was calculated at each concentration of the compound of the present invention added as the solution, and IC50 was calculated by reverse-presumption by a logistic model using a concentration and an inhibition rate. […]

T2 sequence (P10635 whole entry): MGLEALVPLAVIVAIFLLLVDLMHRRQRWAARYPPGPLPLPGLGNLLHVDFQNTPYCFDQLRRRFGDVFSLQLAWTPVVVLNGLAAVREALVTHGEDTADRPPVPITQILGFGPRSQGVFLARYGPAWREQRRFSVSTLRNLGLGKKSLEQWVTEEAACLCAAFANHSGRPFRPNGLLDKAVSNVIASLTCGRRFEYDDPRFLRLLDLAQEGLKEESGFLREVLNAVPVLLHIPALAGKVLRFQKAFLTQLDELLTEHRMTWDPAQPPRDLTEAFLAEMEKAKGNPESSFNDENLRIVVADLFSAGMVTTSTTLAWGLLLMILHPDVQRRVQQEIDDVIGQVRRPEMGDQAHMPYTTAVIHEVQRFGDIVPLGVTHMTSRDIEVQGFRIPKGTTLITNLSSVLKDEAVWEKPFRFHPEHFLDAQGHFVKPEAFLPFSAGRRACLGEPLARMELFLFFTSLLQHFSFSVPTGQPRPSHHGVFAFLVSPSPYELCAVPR
T6 sequence (P11712 whole entry): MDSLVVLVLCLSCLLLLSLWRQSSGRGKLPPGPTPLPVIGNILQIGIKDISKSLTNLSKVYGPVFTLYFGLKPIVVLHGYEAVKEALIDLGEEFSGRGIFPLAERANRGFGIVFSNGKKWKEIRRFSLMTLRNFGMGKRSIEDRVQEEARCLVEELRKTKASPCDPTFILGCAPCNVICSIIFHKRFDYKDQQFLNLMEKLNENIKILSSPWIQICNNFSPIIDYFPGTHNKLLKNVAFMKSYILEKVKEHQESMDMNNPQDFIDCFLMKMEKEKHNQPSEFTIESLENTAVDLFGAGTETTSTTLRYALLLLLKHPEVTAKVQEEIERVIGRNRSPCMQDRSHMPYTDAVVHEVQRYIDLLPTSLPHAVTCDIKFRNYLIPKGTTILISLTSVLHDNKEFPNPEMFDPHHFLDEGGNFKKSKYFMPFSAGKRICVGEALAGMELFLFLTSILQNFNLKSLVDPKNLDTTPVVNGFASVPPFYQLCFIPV
T1 sequence (Q9HBA0 whole entry): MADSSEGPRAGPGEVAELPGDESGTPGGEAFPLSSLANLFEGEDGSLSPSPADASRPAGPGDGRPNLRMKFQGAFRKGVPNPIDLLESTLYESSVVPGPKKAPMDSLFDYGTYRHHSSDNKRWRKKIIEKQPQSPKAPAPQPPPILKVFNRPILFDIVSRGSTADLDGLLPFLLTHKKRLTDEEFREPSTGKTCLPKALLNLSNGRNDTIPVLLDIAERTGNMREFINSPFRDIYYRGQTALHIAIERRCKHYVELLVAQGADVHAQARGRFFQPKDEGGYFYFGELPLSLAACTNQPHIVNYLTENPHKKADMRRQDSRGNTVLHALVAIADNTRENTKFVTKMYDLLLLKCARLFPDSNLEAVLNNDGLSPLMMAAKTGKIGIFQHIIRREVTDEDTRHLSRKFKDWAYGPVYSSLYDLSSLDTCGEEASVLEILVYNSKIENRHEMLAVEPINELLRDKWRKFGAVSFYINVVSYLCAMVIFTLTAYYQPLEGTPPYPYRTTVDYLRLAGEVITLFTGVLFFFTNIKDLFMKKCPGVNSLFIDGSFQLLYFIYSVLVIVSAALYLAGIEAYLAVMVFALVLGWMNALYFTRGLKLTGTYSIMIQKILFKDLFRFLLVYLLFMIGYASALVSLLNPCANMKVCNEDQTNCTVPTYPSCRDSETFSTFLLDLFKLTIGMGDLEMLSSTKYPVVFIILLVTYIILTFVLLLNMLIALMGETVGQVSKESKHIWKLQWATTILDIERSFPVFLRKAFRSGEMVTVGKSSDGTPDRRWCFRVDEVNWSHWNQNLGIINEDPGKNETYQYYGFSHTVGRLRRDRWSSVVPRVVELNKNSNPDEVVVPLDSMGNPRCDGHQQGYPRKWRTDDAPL
T5 sequence (P33261 whole entry): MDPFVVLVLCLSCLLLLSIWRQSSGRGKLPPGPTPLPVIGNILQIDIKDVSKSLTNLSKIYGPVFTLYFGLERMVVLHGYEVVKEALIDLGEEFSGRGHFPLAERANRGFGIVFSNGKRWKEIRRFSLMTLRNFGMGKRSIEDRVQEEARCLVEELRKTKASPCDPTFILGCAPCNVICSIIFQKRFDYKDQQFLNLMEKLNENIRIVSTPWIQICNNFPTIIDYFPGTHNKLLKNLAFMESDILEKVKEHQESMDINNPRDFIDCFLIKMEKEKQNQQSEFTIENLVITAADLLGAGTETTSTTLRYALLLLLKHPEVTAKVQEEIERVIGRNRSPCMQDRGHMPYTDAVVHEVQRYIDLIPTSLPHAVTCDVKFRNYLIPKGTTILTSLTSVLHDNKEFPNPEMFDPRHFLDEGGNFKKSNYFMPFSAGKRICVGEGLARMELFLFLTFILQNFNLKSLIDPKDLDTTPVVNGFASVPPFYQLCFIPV
T4 sequence (P08684 whole entry): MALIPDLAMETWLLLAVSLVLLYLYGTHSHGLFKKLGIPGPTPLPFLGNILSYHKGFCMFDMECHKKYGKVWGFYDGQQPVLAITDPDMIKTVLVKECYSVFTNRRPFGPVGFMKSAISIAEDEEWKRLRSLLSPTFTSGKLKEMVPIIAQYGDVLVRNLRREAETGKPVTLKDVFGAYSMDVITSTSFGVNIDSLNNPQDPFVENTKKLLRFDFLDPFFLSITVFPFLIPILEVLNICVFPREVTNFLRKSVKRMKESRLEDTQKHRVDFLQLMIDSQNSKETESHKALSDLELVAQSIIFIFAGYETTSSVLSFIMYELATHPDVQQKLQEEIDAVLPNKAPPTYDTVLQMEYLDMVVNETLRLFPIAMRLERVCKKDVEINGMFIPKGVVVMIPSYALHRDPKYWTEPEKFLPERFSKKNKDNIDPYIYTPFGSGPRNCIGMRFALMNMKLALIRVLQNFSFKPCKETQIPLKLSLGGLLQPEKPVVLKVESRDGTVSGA
T7 sequence (P08684 whole entry): as above

SMILES | Ki [1] [µM] | IC50 (CYP2D6) [µM] | IC50 (CYP1A2) [µM] | IC50 (CYP3A4) [µM] | IC50 (CYP2C19) [µM] | IC50 (CYP2C9) [µM] | solubility at 16 h [2] [µM] | IC50 [3] [µM] | Metabolism stability: remaining amount of the compound after the reaction [4] [%] | CYP3A4 fluorescent MBI test: difference between IC50 values without and with preincubation [5]
Cc1nc(C)c(-c2csc(NC(=O)[C@@H]3CCC(=O)N3)n2)s1 [Compound I-42] | 1 to 3 | > 20 | > 20 | > 20 | > 20 | > 20 |  |  |  | 
Cc1nc(C)c(-c2csc(NS(=O)(=O)Cc3ccccc3)n2)s1 [II-1] | 1 to 3 |  |  |  |  |  | > 50 |  |  | 
Cc1nc(C)c(-c2csc(NC(=O)Cn3cc(Cl)cn3)n2)s1 [Compound I-116] |  | > 20 | > 20 | > 20 | > 20 | > 20 |  | 1 to 8 |  | 
Cc1nc(CO)sc1-c1csc(NC(=O)C2CCC(F)(F)C2)n1 (stereo not drawn) [Compound I-95] |  | > 20 | > 20 | > 20 | > 20 | > 20 |  | 0.1 to 1 | 99.4 | 

The next lines start with results.

Ki [1] [µM] | IC50 (CYP2D6) [µM] | IC50 (CYP1A2) [µM] | IC50 (CYP3A4) [µM] | IC50 (CYP2C19) [µM] | IC50 (CYP2C9) [µM] | solubility at 16 h [2] [µM] | IC50 [3] [µM] | Metabolism stability: remaining amount of the compound after the reaction [4] [%] | SMILES | CYP3A4 fluorescent MBI test: difference between IC50 values without and with preincubation [5]
 |  |  |  |  |  | > 50 | 1 to 8 |  | Cc1nc(CN(C)C)sc1-c1csc(NC(=O)Cc2c(F)cccc2F)n1 [Compound I-81] | 
 | > 20 | > 20 | > 20 | > 20 | > 20 |  | 0.1 to 1 |  | Cc1nc(C(=O)NO)sc1-c1csc(NC(=O)Cc2c(F)cccc2F)n1 [Compound I-107] | (−) (when the difference is 3 μM or less, this was defined as (−))
